{"source": "paper PMC6838142", "about": "“Nano-Antagonist Alleviates Inflammation and Allows for MRI of Atherosclerosis” (Nanotheranostics, 2019)", "assay_type_in_all_cases": "cell-based, mouse", "key": {"RAW-Blue cells": {"tested_on": "RAW-Blue cells", "assay": "Nanoparticle cell-surface binding/uptake in RAW-Blue cells (rhodamine fluorescence)", "conditions": "1 and 10 µM nanoparticles with 1% rhodamine; 550/620 nm", "procedure": "(§1) A schematic representation of nanoparticle screening is depicted in Supplementary Figure S4. Briefly, RAW-Blue NFkB reporter cells were cultured as per the manufacturer's recommendations. Cells were seeded and cultured overnight in black opaque 96-well plates with a clear bottom at 50,000 per well. Cells were then treated with 1 and 10 µM of nanoparticles containing 1% rhodamine and positive and negative controls (see below) for 30 min on ice followed by washing steps with cold PBS. Next, lipopolysaccharide (LPS) was added at 100 ng/mL and incubated for 6 h at 37 °C, following which the cells were washed again and incubated for 18 h at 37 °C in fresh medium. Next, 20 µL of supernatant was collected and assayed using SEAP detection reagent in a separate clear bottom 96-well plate as per Invivogen instructions (http://www.invivogen.com). Absorbance at OD 650 nm was recorded and was indicative of NFkB activation. In parallel, cells in the opaque plate were washed again and fluorescence was read at 550 nm excitation and 620 nm emission. This signal from rhodamine was indicative of nanoparticle uptake. […] All analysis was performed using Molecular Devices i3 multi-mode plate reader and SoftMax Pro software version 6.2 (Molecular Devices)."}, "NF-kB": {"tested_on": "NF-kB", "assay": "Nanoparticle screening: NFkB activation in RAW-Blue reporter cells", "procedure": "as §1"}, "[1]": {"tested_on": "NLRP3 inflammasome (J774 cells)", "assay": "Inflammasome activation immunoblot in J774 cells", "conditions": "additional activator ATP 1 mM", "procedure": "BMDMs or J774 cells were plated in 48-well plates at 2 x 10^5 per well. Next day, the medium was changed to Opti-MEM (100 μL per well) without serum and the cells were allowed to equilibrate for 3 h. Next, the cells were pretreated with the indicated concentrations of nanoparticles or controls for 3 h followed by the addition of LPS to some wells to the final LPS concentration of 50 ng/mL. LPS priming continued for another 2 h, following which DMSO (vehicle), Nigericin (5 μM) or adenosine triphosphate (ATP) (1 mM) were added to some wells. Cells were incubated for an additional 30 min and cell culture supernatants were collected on ice. Cells were washed with cold PBS once and lysed/processed as described in immunoblotting section. The supernatants (90 μL) were mixed with 10 μL of 10x SDS loading buffer (10% SDS, 10% Ficoll 400, 0.5 M Tris pH 6.8, 0.5 M DTT, and 0.001% bromophenol blue) and heat-denatured as described in the immunoblotting section. Supernatants were loaded at 45 μL per lane on Bio Rad TGX Criterion 12+2 gels (4-20%) and lysates were loaded at 15 μg per lane. Immunoblotting was performed as described above.\nSupplementary Figure S10. Inflammasome activation assays in J774 cells. The cells were treated as described in Methods and main text Figure 5 legend, plus additional inflammasome activator ATP that was added at 1 mM. Immunoblot was performed as described in methods. […]"}, "CCR2": {"tested_on": "CCR2", "assay": "Uptake in wild-type macrophages pre-treated with CCR2 inhibitor", "conditions": "BMS CCR2 22 10 nM, 6 h pre-treatment vs DMSO", "procedure": "Supplementary Figure S6. A) Separate channels for main manuscript Figure 1B.\nUptake of carboxyfluorescein-labeled CCTV or VTCC in cultured bone marrow derived macrophages from B)\nCCR2 knockout (KO, B6.129S4-Ccr2 /J) or wild-type (WT) mice; C) wild-type mouse-derived macrophages\npre-treated (6 h) with CCR2 inhibitor BMS CCR2 22 (10 nM) or DMSO as vehicle control. C)\n(1 picture or pasted object on this page, not shown here)"}}}
{"substance": "CCTV", "values": [{"measurement": "cell-surface binding", "setting": "RAW-Blue cells", "result": "high cell-surface binding"}, {"measurement": "NF-kB activity compared with dexamethasone", "setting": "NF-kB; 10 µM nanoparticles vs Dex 1 mM, LPS 100 ng/mL", "result": "almost to the same level as that in cells treated with NF-kB inhibitor dexamethasone (Dex) at 1 mM"}, {"measurement": "NF-kB activity", "setting": "NF-kB; 1 and 10 µM nanoparticles, 30 min on ice, LPS 100 ng/mL 6 h, SEAP OD 650 nm", "result": "significantly downregulated NF-kB activity"}, {"measurement": "inflammasome deactivation in J774 cells", "setting": "[1]", "result": "reproducible in J774 cells"}, {"measurement": "uptake in macrophages pre-treated with BMS CCR2 22", "setting": "CCR2", "result": "drastically reduced"}]}
